Data: PubChem BioAssay (NCI)
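1) Cells in 96-well plates. 2) Compound, 48 h, 5 concentrations. 3) Linear interpolation between surrounding doses. 4) Unreached endpoint = highest concentration. GI50 marks 50% less growth. TGI is the concentration that stops growth completely.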

Columns and labels:
Assay in all cases: growth of human tumour cells (NCI), 48 h
[1] = tested on: HS 578T breast
[2] = tested on: K-562 leukemia
[3] = tested on: NCI-H522 lung
[4] = tested on: OVCAR-3 ovarian
[5] = tested on: SK-MEL-2 melanoma
[6] = tested on: SK-MEL-5 melanoma
[7] = tested on: SW-620 colon
[8] = tested on: T-47D breast
[9] = tested on: TK-10 renal
[10] = tested on: U251 CNS

Row | SMILES | TGI [1] | TGI [2] | TGI [3] | TGI [4] | TGI [5] | TGI [6] | TGI [7] | TGI [8] | TGI [9] | TGI [10] | GI50 [1] | GI50 [2] | GI50 [3] | GI50 [4] | GI50 [6] | GI50 [8] | GI50 [9] | GI50 [10] | GI50 [5] | GI50 [7]
1 | CC(=O)OC(OC(C)=O)n1cc(C=O)c2ccccc21 | > 100 µM | > 100 µM | > 100 µM | > 100 µM | > 100 µM | > 100 µM | > 100 µM | > 100 µM | > 100 µM | > 100 µM |  |  |  |  |  |  |  |  |  | 
2 | COP(=O)(OC)C(Cc1c[nH]c2ccccc12)NC(=O)OCc1ccccc1 (stereo not drawn) | > 100 µM | > 100 µM | > 100 µM | > 100 µM | > 100 µM | > 100 µM | > 100 µM | > 100 µM | > 100 µM | > 100 µM |  |  |  |  |  |  |  |  |  | 
3 | O=C(NC1CCN(Cc2ccccc2)CC1)c1cc2nc(-c3ccc(Cl)s3)cc(C(F)(F)F)n2n1 | > 100 µM | > 100 µM | > 100 µM | > 100 µM |  | > 100 µM |  | > 100 µM | > 100 µM | > 100 µM | 10.9 µM | 3.29 µM | 8.45 µM | 42.4 µM | 6.34 µM | 41.3 µM | 12.5 µM | 5.98 µM |  | 
4 | N#C[S-].[Nd+3].c1ccc(-c2ccccn2)nc1.c1ccc(-c2ccccn2)nc1.c1ccc(-c2ccccn2)nc1 |  |  |  | > 100 µM | 51.5 µM | 4.77 µM | > 100 µM |  | > 100 µM | > 100 µM |  |  |  | 37.6 µM | 1.53 µM |  | 5.05 µM | 4.18 µM | 8.47 µM | 5.93 µM
